Test system: IN double-mutant G140S-Q148H (SH)
Type: biochemical

Q: How did the “increase in IC50 for 3′-P compared to WT (resistance factor)” value turn out when `Cc1nnc(C(=O)NC(C)(C)c2nc(C(=O)NCc3ccc(F)cc3)c(O)c(=O)n2C)o1` [RAL, Raltegravir] was run?
A: more than 62 fold

Source: article PMC2866738 (Biochemistry, 2010)
